According to the METLIN SMRT retention time set (Domingo-Almenara et al. 2019):

Experiment: gradient 5% acetonitrile 3 min, to 50% in 2 min, to 85% in 15 min, held 3 min, 100 µL/min
Details: column: Zorbax Extend-C18 2.1 x 50 mm; eluents: water / acetonitrile, 0.1% formic acid
Procedure, shortened: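 Each retention time is based on an adduct peak selected computationally and verified by manual inspection. Measurements used HPLC–quadrupole time-of-flight mass spectrometry in positive and negative ionization mode on mixtures of ~100 pure standards. Chromatography ran on a Zorbax Extend-C18 column (2.1 × 50 mm, 1.8 μm) at 100 μL/min with water and acetonitrile, each containing 0.1% formic acid, and dead and dwell volumes of 40 μL and 900 μL.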

Structure (SMILES)	RP-LC retention time [s]
CCCn1cc(C(=O)NCc2ccc(N(C)C)cc2)c2cccnc21	630
CCOCCCNCc1ccc(-c2ccc(Cl)cc2Cl)o1	765
Cc1ccc(CN2CC(Oc3ccc(-c4noc(-c5cccnc5)n4)cc3)C2)o1	691
Cc1ccc(CNC(=O)c2nnc(-c3ccc(S(=O)(=O)N4CCC(C)CC4)cc3)o2)o1	923
CCNc1ncnc2sc3c(c12)CCN(S(=O)(=O)c1ccccc1)C3	805
N#Cc1ccccc1CN1CCC2(CCC2O)CC1 (centres undefined)	565
Cc1ccc(CNC(=O)c2ccc3c(c2)CN(Cc2scnc2C)CCO3)cc1	648
CC(C)Cn1cc(CCNS(=O)(=O)c2ccccc2Cl)c2cccnc21	922
Cc1noc(-c2ccc(OC3CN(C(=O)C(C)Oc4ccccc4)C3)cc2)n1 (centres undefined)	899
COc1ccc(C(C)NC(=O)C2c3ccccc3CCN2C(=O)C2CC2)cc1OC (centres undefined)	802
O=C(NCc1ccc(Cl)cc1)C1CCN(c2cc(N3CCOCC3)ncn2)CC1	663
O=C(NCc1ccco1)C1CCCN(c2nnc3ccc(Cl)cn23)C1 (centres undefined)	687
O=C(c1cccnc1)N1CCN(C(=O)c2nnn3c2COC(c2ccc(Cl)cc2)C3)CC1 (centres undefined)	692
O=C(Nc1ccc2c(c1)OCCO2)C(=O)c1cn(CC(=O)N2CCCCC2)c2ccccc12	1010
COc1ccc(-c2nc3ncccn3c2NC2CCCCCC2)cc1OC	756
FC(F)(F)Oc1ccccc1CN1CCC[C@H]1c1nc(C2CCOCC2)n[nH]1	597
Cn1cc(-c2ccncc2)cc1C(=O)N1CCN(c2ccccc2)CC1	624
COc1cc(OC)cc(-c2noc(Cn3nc(-c4ccc(C)cc4)ccc3=O)n2)c1	1090

Structure (SMILES)	RP-LC retention time [s]
O=C(Nc1nccs1)C1CCN(S(=O)(=O)C2CC2)CC1	632
Cc1cc(Cl)ccc1NC(=O)NCC1CCOCC1	788
Nc1c2ccccc2nc2ccccc12	637
CN(C)c1ccc(C(CNC(=O)c2ccco2)N2CCc3ccccc3C2)cc1 (centres undefined)	582
O=C(c1cc(S(=O)(=O)N2CCCC(C(=O)N3CCN(c4ccccc4)CC3)C2)c[nH]1)N1CCCC1 (centres undefined)	804
Cc1noc(C)c1-c1ccc(S(=O)(=O)Nc2ccc(C(C)C)cc2)cc1	1060
Cc1ccc(C(=O)N2CCC(Nc3ncnc4c3CCC4)CC2)cn1	583
CN(C1CCCCC1)S(=O)(=O)N1CCCC(C(=O)NCc2ccc3c(c2)OCO3)C1 (centres undefined)	954
O=C(NCCCc1ccccc1)c1cccc2c1CCN2C(=O)C1CC1	902
Cc1cc(Cl)ccc1OCc1nc2c3ccccc3ncn2n1	1060
Cc1sc2cc(C(=O)N3CCN(c4ccccn4)CC3)[nH]c2c1CN1CCOCC1	568
Cc1cc(C)c(S(=O)(=O)N2CCC3(CC2)NCCN=C3NCc2ccccc2C)c(C)c1	854
CCC1CCCCN1S(=O)(=O)c1cc(-c2cc(C)[nH]n2)sc1C (centres undefined)	958
O=C(NCc1ccc(Br)cc1)C1CCCN(c2nccnc2Oc2ccccc2)C1 (centres undefined)	1050
Cc1cc(C)c2c(N3CCSCC3)nc(C(=O)NCC3CC3)nc2n1	653
CN(CC(=O)N1CCN(c2ccccn2)CC1)c1nnc(N2CCCC2=O)s1	550
Cc1c(C(=O)N2CCSCC2)cnn1-c1cc(-c2nc(C3CC3)no2)ccn1	949
CCCCN(C)C(=O)C1CCN(c2cn[nH]c(=O)c2)CC1	640

The remaining lines, values ahead:

RP-LC retention time [s]	Structure (SMILES)
711	COc1ccc(NC(=O)c2c(C)oc3nc(C)nc(N4CCOCC4)c23)cc1OC
899	Cc1ccc(NC(=O)Cn2c(=O)n(-c3cccc(C)c3)c(=O)c3c2cc(C)n3C)cc1
939	Cc1ccc(-c2cc3n(n2)CCCN(C(=O)Cc2ccccc2F)C3)cc1
765	COc1ccc(CCNC(=O)C2=C3CCCN3c3ccccc3S2(=O)=O)cc1OC
918	CC(C)n1nc(CNC(=O)C2CCN(S(=O)(=O)c3ccccc3)CC2)c2ccccc21
720	CS(=O)(=O)N1CCC(OC2CCN(C(=O)Nc3ccc(F)cc3F)CC2)CC1
783	Cc1ccc(Cl)cc1NC(=O)Cn1cnc2nc3c(cc2c1=O)CCCC3
1100	CCOC(=O)c1sc(NC(=O)c2cccc([N+](=O)[O-])c2)nc1-c1ccccc1
879	CCOC(=O)c1cnc2c(-c3ccccc3OC)c(C)nn2c1N
595	Cc1ccc(CNC(=O)Cn2c(N)nc(C)cc2=O)cc1
631	O=C(Nc1ccc(Cl)cc1)Nc1c(-c2ccncc2)nc2ccccn12
740	O=C(NCCc1c[nH]c2ccccc12)c1csc(NS(=O)(=O)c2cccs2)n1
788	COc1ccc(NC(=O)CSc2nccc3c2ccn3Cc2ccc(F)cc2)cc1OC
1040	CC1CCN(S(=O)(=O)c2ccc(-c3nnc(C(=O)NCc4ccc(F)cc4)o3)cc2)CC1
1120	CCCc1cc(C(=O)N2CCCC2c2ccc(OC)cc2)no1 (centres undefined)
730	COCCN1CCn2cc(S(=O)(=O)Nc3cc(C)ccc3C)cc2C1=O
805	Cc1nn(C)c(C)c1S(=O)(=O)N1CCc2c(c(-c3nnc(-c4ccc(F)cc4)o3)nn2C)C1
650	CCC(C(=O)N1CCN(c2cc(C)n3c(C)nnc3n2)CC1)c1ccccc1 (centres undefined)
826	COc1ccc(NC(=O)N2CC=C(c3cn(C(C)C)c4ncccc34)CC2)cc1OC
923	O=C(CN1C(=O)c2ccccc2C1=O)Oc1ccc2nc(N3CCCCC3)sc2c1
1140	CCCCn1c(=O)c2ccccc2n(Cc2nc(-c3ccccc3)no2)c1=O
702	Nc1cc(C2CCN(S(=O)(=O)c3cccc4cccnc34)CC2)no1
768	Cc1ccccc1C1CCCN1C(=O)c1ccnn1C (centres undefined)
1210	O=c1c2sccc2n(Cc2nc(-c3ccc(Cl)c(F)c3)no2)c(=O)n1Cc1ccccc1
803	CN(Cc1ccco1)C(=O)C1CCN(S(=O)(=O)c2ccc3c(c2)sc(=O)n3C)CC1
975	COc1ccc(-c2cc3nn(CC(=O)Nc4cc(C)ccc4C)c(=O)n3c(C)n2)cc1
1280	Cc1ccc(-c2noc(-c3ccc(=O)n(CCC(C)C)n3)n2)cc1

RP-LC retention time [s]	Structure (SMILES)
959	CCCCNC(=O)Cn1c(C(=O)OC)cc2oc3ccccc3c21
648	CSc1ccc(CNC(=O)COc2cc(C)nc(N3CCCC3)n2)cc1
1270	CCCOc1nc2ccccc2nc1N1CCCC(C(=O)NCc2ccc(Cl)cc2)C1 (centres undefined)
1100	CCCN1C(=O)c2cc(S(=O)(=O)Nc3ccc(F)c(C)c3)ccc2Oc2cccnc21
858	Cc1noc(C)c1S(=O)(=O)N1CCC(C(C)C(=O)NCCc2c[nH]c3ccccc23)CC1 (centres undefined)
629	Fc1ccccc1-c1nc(-c2ccc3c(c2)ncn3CCN2CCCC2)no1
732	CC1(C)S[C@@H]2[C@H](NC(=O)Cc3ccccc3)C(=O)N2C1C(=O)O (some centres undefined)
895	CCOc1ccc(-n2ccn3cc(-c4cc(OC)ccc4OC)nc3c2=O)cc1
850	O=C(NCCOc1ccc(F)cc1)NCc1ccc(Cl)cc1
979	O=C(CCc1nc(-c2ccc(N3CCCC3)cc2)no1)NCc1ccc2c(c1)OCO2
722	COc1cccc(NC(=O)C2CCCN2S(=O)(=O)c2cc3c(cc2C)NC(=O)CO3)c1 (centres undefined)
697	Cc1csc(NC(=O)C2CCN(S(=O)(=O)c3cc(C(=O)N4CCCC4)n(C)c3)CC2)n1
674	O=C(CN1C(=O)CCC1=O)Nc1nnc(-c2ccc(C(F)(F)F)cc2)o1
793	CCc1cc(=O)n(CC(=O)NCc2ccc(F)cc2)c(N)n1
941	Cc1cccc(NC(=O)c2cn(C)nc2S(=O)(=O)N2CCSCC2)c1
957	COc1cccc(-c2noc(Cn3c(=O)n(-c4ccccc4F)c(=O)c4sccc43)n2)c1
933	COc1ccc(Cl)cc1NC(=O)N1C[C@@H](F)C[C@H]1C(=O)N1CCc2ccccc2C1
757	O=C(c1ccccc1Br)N1CCN=C1N1CCN(c2ccccc2F)CC1
706	Cn1c(=O)c2nc(SCCC(=O)Nc3c(F)cccc3F)n(C)c2n(C)c1=O
627	COc1ccc(NC2CC(=O)N(c3ccccc3Cl)C2=O)cc1 (centres undefined)
1110	COc1cccc(NC(=O)Cn2nc3cc(C)nc(Nc4cc(C)cc(C)c4)n3c2=O)c1
1080	COC(=O)c1cc(C)nc2c1c(=O)n(Cc1ccc(Cl)cc1)c(=O)n2C
804	Cc1cn(C)c(CC(=O)Nc2ccc(Cl)cc2)c1C(=O)O
852	Cc1ccc(NC(=O)C2Oc3ccccc3NC2=O)c(Br)c1 (centres undefined)
594	Cc1ccc(CN2CCC(CNC(=O)C3CCCN(c4nccc(C)n4)C3)CC2)cc1 (centres undefined)
634	CCn1c(CCNC(=O)c2ccc(C)s2)nc2cccnc21
